Laboratory results taken from US6245799A, “[(Indol-3-yl)-cycloalkyl]-3-substituted azetidines for the treatment of central nervous system disorders” (American Home Products Corp, priority 2000, dated 2001).
pIC50, pKi: −log10 of the molar value. Where two headings read alike, the source gives them in different places.

Key:
5-HT transporter = molecular target: T1, 5-HT transporter (Rattus norvegicus, UniProt P31652); experiment: Rat Brain ^3 H-Paroxetine Binding Assay (RB 5HT Transporter)
T1 construct: frontal cortical membranes prepared from male S.D. rats; from tissue; host or cells: frontal cortical membranes of male S.D. (Sprague-Dawley) rats
T1 sequence (P31652 whole entry): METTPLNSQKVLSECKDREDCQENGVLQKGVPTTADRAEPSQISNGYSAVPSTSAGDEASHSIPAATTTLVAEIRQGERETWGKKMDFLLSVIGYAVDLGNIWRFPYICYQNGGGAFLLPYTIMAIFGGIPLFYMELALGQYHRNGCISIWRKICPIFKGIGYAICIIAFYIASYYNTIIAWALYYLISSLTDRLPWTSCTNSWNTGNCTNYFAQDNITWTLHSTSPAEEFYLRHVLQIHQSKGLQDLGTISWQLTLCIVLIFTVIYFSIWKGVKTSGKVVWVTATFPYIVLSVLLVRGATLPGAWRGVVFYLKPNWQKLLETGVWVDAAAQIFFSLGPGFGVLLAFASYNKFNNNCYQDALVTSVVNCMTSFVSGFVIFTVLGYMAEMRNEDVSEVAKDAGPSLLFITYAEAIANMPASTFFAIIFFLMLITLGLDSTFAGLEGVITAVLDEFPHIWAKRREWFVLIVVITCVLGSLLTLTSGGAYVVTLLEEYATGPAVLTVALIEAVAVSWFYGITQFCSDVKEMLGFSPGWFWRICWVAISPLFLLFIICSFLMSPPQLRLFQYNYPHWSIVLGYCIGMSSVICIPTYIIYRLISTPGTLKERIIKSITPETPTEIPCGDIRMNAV
Excerpt: The 5-HT transporter affinity of the compounds of this invention was established in accordance with standard pharmaceutically accepted test procedures with representative compounds as follows:
Rat Brain ^3 H-Paroxetine Binding Assay (RB 5HT Transporter):
The following assay was used to determine a compound's affinity for the 5-HT transporter.
A protocol similar to that used by Cheetham et. al. (Neuropharmacol. 1993, 32, 737) was used. Briefly, frontal cortical membranes prepared from male S.D. rats were incubated with ^3 H-paroxetine (0.1 nM) for 60 min. at 25° C. All tubes also contained either vehicle, test compound (one to eight concentrations), or a saturating concentration of fluoxetine (10 μM) to define […]. All reactions are terminated by the addition of ice cold Tris buffer followed by rapid filtration using a Tom Tech filtration device to separate bound from free ^3 H-paroxetine. Bound radioactivity was quantitated using a Wallac 1205 Beta Plate® counter. Nonlinear regression analysis was used to determine IC50 values which were converted to Ki values using the method of Cheng and Prusoff (Biochem. Pharmacol. 1973, 22, 3099): [formula]

Human 5-HT Transporter = molecular target: T2, Human 5-HT Transporter (Homo sapiens, UniProt P31645); experiment: Inhibition of ^3 H-5-HT Uptake by cells Possessing the Human 5-HT Transporter (HC 5HT Transporter); format: cell-based
T2 construct: endogenous in cells; host or cells: Jar cells (human carcinoma cell line), treated with staurosporine to raise expression
T2 sequence (P31645 whole entry): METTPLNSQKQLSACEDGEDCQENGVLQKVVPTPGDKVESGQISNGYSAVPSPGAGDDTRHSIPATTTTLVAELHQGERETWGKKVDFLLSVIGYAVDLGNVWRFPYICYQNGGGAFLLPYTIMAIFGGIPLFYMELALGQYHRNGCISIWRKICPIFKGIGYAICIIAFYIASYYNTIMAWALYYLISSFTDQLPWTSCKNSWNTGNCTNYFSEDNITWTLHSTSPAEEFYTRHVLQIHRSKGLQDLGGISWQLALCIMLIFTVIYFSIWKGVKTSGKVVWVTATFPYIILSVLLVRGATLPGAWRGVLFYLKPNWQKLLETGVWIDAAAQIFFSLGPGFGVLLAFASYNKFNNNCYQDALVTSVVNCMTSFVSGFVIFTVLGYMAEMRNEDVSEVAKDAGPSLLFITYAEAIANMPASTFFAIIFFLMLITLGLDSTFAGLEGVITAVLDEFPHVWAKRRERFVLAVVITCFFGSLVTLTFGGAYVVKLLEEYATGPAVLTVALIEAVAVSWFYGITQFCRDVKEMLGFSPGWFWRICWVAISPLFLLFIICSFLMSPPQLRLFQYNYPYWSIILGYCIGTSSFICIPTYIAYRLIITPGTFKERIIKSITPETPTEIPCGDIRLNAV
Procedure: [Staurosporine greatly increases the expression of the 5-HT-transporter.] On the day of assay, vehicle, excess of fluoxetine, or test compound is added to various wells on the plate. All wells then receive ^3 H-5-HT and are incubated at 37° C. for 5 min. The wells are then washed with ice cold 50 mM Tris HCl (pH 7.4) buffer and aspirated to remove free ^3 H-5-HT. 25 μl of 0.25 M NaOH is then added to each well to lyse the cells and 75 μl scintillation cocktail (Microscint™ 20) added prior to quantitation on a Packard TopCount machine. Tubes with vehicle represent total possible uptake, radioactivity counted in tubes with fluoxetine represent nonspecific binding/uptake and is subtracted from the total possible uptake to give total possible specific uptake. This nonspecific binding (usual low in number) is then subtracted from the counts obtained in wells with various test compounds (or different concentrations of test drug) to give specific uptake in the presence of drug. Specific uptake is then expressed as a % of control values and is analyzed using nonlinear regression analysis (Prizm) to determine IC50 values. If the compound is active at inhibiting 5-HT uptake, its counts will be close to that obtained with fluoxetine.

[1] = rat frontal cortical membranes; ^3 H-paroxetine (0.1 nM), 60 min, 25° C.; n = 1; read-out: RB 5HT Transporter Ki
[2] = Jar cells (human carcinoma), staurosporine treated, ^3 H-5-HT uptake, 37° C., 5 min, n = 1, read-out: HC 5HT Transporter IC50
[3] = RB 5HT Transporter Ki, rat frontal cortical membranes; ^3 H-paroxetine (0.1 nM), 60 min, 25° C.; n = 1

Molecule | pKi (5-HT transporter; [1]) | pIC50 (Human 5-HT Transporter; [2]) | pKi (5-HT transporter; [3]) | also measured
2-{cis-4-[3-(3-Methoxy-phenoxy)-azetidin-1-yl]-cyclohexyl}-1H-indole [Example 6a] | 6.92 |  |  | 
Fc1cccc(OC2CN(C3CCC(c4c[nH]c5cc(F)ccc45)CC3)C2)c1 (single isomer, unassigned) [Example 10a, 6-Fluoro-3-{4-[3-(3-fluoro-phenoxy)-azetidin-1-yl]-cyclohexyl}-1H-indole] | 6.72 |  |  | 
Fc1cccc(OC2CN(C3CCC(c4c[nH]c5cc(F)ccc45)CC3)C2)c1 (single isomer, unassigned) [Example 10b, 6-Fluoro-3-{4-[3-(3-fluoro-phenoxy)-azetidin-1-yl]-cyclohexyl}-1H-indole] | 7.14 | 5.34 |  | 
COc1ccccc1NC1CN([C@H]2CC[C@@H](c3c[nH]c4ccc(F)cc43)CC2)C1 [Example 1a] | 7.82 | 6.02 |  | 
COc1ccccc1NC1CN([C@H]2CC[C@H](c3c[nH]c4ccc(F)cc43)CC2)C1 [Example 1b] | 7.77 | 6.23 |  | 
N#Cc1ccc2[nH]cc([C@H]3CC[C@@H](N4CC(Oc5cccc(F)c5)C4)CC3)c2c1 [Example 2a, 3-(cis-4-[3-(3-Fluoro-phenoxy)-azetidin-1-yl]-cyclohexyl)-1H-indole-5-carbonitrile] | 7.80 | 6.47 |  | 
N#Cc1ccc2[nH]cc([C@H]3CC[C@H](N4CC(Oc5cccc(F)c5)C4)CC3)c2c1 [Example 2b, 3-(trans-4-[3-(3-Fluoro-phenoxy)-azetidin-1-yl]-cyclohexyl)-1H-indole-5-carbonitrile] | 7.32 | 6.55 |  | 
COc1cccc(OC2CN([C@H]3CC[C@@H](c4c[nH]c5ccc(C#N)cc54)CC3)C2)c1 [Example 3a] |  |  | 8.62 | pIC50 (Human 5-HT Transporter): 7.04
COc1cccc(OC2CN([C@H]3CC[C@H](c4c[nH]c5ccc(C#N)cc54)CC3)C2)c1 [Example 3b] |  |  | 7.96 | pIC50 (Human 5-HT Transporter): 6.63
Fc1cccc(NC2CN([C@H]3CC[C@@H](c4c[nH]c5ccc(F)cc54)CC3)C2)c1 [Example 4, {1-[cis-4-(5-Fluoro-1H-indol-3-yl)-cyclohexyl]-azetidin-3-yl}-(3-fluoro-phenyl)-amine] | 7.74 | 5.19 |  | 
COc1ccccc1NC1CN([C@H]2CC[C@@H](c3c[nH]c4ccccc43)CC2)C1 [Example 5a, {1-[cis-4-(1H-Indol-3-yl)-cyclohexyl]-azetidin-3-yl}-(2-methoxy-phenyl)-amine] |  |  | 6.91 | 
COc1ccccc1NC1CN([C@H]2CC[C@H](c3c[nH]c4ccccc43)CC2)C1 [Example 5b, {1-[trans-4-(1H-Indol-3-yl)-cyclohexyl]-azetidin-3-yl}-(2-methoxy-phenyl)-amine] |  |  | 7.47 | 
Fc1cccc(OC2CN([C@H]3CC[C@@H](c4c[nH]c5ccc(F)cc54)CC3)C2)c1 [Example 7a, 5-Fluoro-3-{cis-4-[3-(3-fluoro-phenoxy)-azetidin-1-yl]-cyclohexyl}-1H-indole] | 6.59 |  |  | 
Fc1cccc(OC2CN([C@H]3CC[C@H](c4c[nH]c5ccc(F)cc54)CC3)C2)c1 [Example 7b, 5-Fluoro-3-{trans-4-[3-(3-fluoro-phenoxy)-azetidin-1-yl]-cyclohexyl}-1H-indole] |  |  |  | pKi (5-HT transporter; read-out: RB 5HT Transporter Ki; rat frontal cortical membranes; ^3 H-paroxetine (0.1 nM), 60 min, 25° C.; n = 1): 7.17; pIC50 (Human 5-HT Transporter; read-out: HC 5HT Transporter IC50, Jar cells (human carcinoma), staurosporine treated, ^3 H-5-HT uptake, 37° C., 5 min, n = 1): 5.22
COc1cccc(OC2CN([C@H]3CC[C@@H](c4c[nH]c5ccc(F)cc54)CC3)C2)c1 [Example 8a, 5-Fluoro-3-{cis-4-[3-(3-methoxy-phenoxy)-azetidin-1-yl]-cyclohexyl}-1H-indole] | 7.62 | 5.22 |  | 
COc1cccc(OC2CN([C@H]3CC[C@H](c4c[nH]c5ccc(F)cc54)CC3)C2)c1 [Example 8b, 5-Fluoro-3-{trans-4-[3-(3-methoxy-phenoxy)-azetidin-1-yl]-cyclohexyl}-1H-indole] | 7.35 | 5.82 |  | 
Fc1cccc(OC2CN([C@H]3CC[C@@H](c4c[nH]c5ccccc54)CC3)C2)c1 [Example 9a, 3-{4-[3-(3-Fluoro-phenoxy)-azetidin-1-yl]-cyclohexyl}-1H-indole] |  |  | 6.56 | 
Fc1cccc(OC2CN([C@H]3CC[C@H](c4c[nH]c5ccccc54)CC3)C2)c1 [Example 9b, 3-{4-[3-(3-Fluoro-phenoxy)-azetidin-1-yl]-cyclohexyl}-1H-indole] |  |  | 6.34 | 
